Results on 14 compounds are retold here after patent US6518410B2, “Sulfoquinovosylacylglycerol derivative, and use thereof as medicaments” (Toyo Suisan Kaisha, Ltd., priority 1999, dated 2003).

SMILES strings stand for the structures.

The subject of assay [1] is gastric cancer cells NUGC-3. Nature of the assay: Anticancer activity against cultured gastric cancer cells (MTT assay). The assay is classed as cell-based. The following applies: Homo sapiens, NUGC-3, 48 hours, mixture of S- and R-configurations. Here is the method: (§1) Colon cancer cells DLD-1 were maintained and subcultured in RPMI 1640 medium (containing 10% calf serum). Each of compounds SQAG 1, SQAG 2, SQAG 4, SQAG 6, SQAG 8, SQAG 11, SQAG 12, SQAG 13 and SQAG 14 shown in Table 1 was suspended and diluted in the medium, and then was cultivated in a 96-well plate together with the cancer cells at 3×10^3 cells/well. After the culture has been incubated for 48 hours, the MTT assay (Mosmann, T: Journal of immunological Method, 65, 55-63 (1983)) was carried out to compare viability rates.
An assay on anticancer activity against cultured gastric cancer cells was carried out in the same manner as in the assay 4 except that gastric cancer cells NUGC-3 were used instead of the colon cancer cells DLD-1.

Assay [2] addresses T1, DNA polymerase α isolated from the bovine thymus (Bos taurus, UniProt A0AAA9TD94).
T1 construct: isolated from the bovine thymus and purified with an antibody column; from tissue; host or cells: bovine thymus
T1 sequence (A0AAA9TD94 1-1441): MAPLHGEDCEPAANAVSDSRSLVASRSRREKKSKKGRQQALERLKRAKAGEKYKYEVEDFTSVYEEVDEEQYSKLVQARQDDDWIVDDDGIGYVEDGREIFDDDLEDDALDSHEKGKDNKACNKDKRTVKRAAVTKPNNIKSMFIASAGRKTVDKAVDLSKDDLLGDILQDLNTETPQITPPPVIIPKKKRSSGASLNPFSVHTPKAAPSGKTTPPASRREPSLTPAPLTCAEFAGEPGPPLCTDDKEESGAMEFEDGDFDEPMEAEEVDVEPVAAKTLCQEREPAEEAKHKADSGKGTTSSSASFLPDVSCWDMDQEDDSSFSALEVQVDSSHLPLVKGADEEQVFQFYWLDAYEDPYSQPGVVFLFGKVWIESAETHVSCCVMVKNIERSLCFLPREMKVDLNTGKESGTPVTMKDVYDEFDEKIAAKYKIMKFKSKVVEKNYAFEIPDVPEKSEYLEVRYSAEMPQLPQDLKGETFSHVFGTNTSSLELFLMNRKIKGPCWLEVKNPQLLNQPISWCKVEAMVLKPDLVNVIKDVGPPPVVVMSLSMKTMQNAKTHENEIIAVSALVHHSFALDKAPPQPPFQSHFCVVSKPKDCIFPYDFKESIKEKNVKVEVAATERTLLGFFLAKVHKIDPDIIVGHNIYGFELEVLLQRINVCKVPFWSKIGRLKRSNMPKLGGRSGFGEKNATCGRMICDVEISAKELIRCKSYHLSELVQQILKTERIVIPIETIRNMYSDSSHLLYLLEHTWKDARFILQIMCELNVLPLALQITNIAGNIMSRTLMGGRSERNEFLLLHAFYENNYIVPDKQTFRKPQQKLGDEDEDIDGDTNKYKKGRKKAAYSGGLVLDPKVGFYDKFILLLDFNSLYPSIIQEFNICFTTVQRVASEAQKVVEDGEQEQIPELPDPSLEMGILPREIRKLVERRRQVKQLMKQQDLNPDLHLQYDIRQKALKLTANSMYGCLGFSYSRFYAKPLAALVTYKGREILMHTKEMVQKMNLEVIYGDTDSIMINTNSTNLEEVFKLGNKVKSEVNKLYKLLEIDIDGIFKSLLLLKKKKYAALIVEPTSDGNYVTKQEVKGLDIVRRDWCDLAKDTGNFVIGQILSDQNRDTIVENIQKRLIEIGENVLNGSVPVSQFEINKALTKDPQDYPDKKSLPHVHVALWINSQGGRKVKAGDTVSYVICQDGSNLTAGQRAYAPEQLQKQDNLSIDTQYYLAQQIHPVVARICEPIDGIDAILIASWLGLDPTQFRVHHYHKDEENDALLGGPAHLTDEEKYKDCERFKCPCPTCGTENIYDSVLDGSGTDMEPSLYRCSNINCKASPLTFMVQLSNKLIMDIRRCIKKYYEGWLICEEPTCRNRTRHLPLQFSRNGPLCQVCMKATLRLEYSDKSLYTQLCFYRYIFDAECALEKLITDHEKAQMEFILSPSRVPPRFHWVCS
Put plainly: Inhibitory effect against DNA polymerase α. The assay is classed as biochemical. The following applies: 0.05 U enzyme, 37° C., 60 minutes; mixture of S- and R-configurations; read-out: IC50, Inhibition Activity against DNA Polymerase α (converted). On the procedure: An assay on inhibitory effect against a DNA polymerase α was carried out in the following manner.
0.05 U of a DNA polymerase α isolated from the bovine thymus and purified with an antibody column was mixed with each of compounds SQAG 1 to SQAG 14 listed in Table 1 above, each of which was dissolved in DMSO. Each mixture was added with a buffer of an inorganic salt necessary for the enzymatic reaction, [^3H]-labeled dTTP, and a compound for reaction containing a template DNA chain, and was incubated at 37° C. for 60 minutes.
After the enzymatic reaction was stopped, the resultant product was fixed on a dedicated filter to make measurement by a liquid scintillation counter. The amount of enzymatically synthesized dTTP was calculated as a radiation dose (cpm) of [^3H].

A further assay relates to Colon cancer cells DLD-1. Nature of the assay: Anticancer activity against cultured colon cancer cells (MTT assay). The assay is classed as cell-based. The following applies: Homo sapiens, DLD-1, 48 hours, mixture of S- and R-configurations, read-out: IC50, Anti-Cancer Activity against Colon Cancer Cells. On the procedure: An assay on anticancer activity against cultured colon cancer cells was carried out in the following manner.
as §1

Assay [3] deals with responder cells (T lymphocytes) with mitomycin C treated stimulator lymphocytes. Put plainly: Mixed lymphocytes reaction ([3H]-thymidine uptake of responder cells). Format: cell-based, healthy persons. The following applies: 4 days culture, then 12 hours [3H]-thymidine; FIGS. 1-4. Here is the method: Mixed lymphocytes reaction
Lymphocytes serving as stimulator cells and responder cells were prepared from blood taken from individual healthy persons.
The responder cells were further separated from the lymphocyte cells to give T lymphocytes alone.
No treatment was applied to the responder cells. 10^6/mL of the stimulator cells were treated with 10 μg/mL of mitomycin C to stop the cell growth. Thereafter, the stimulator cells were washed with PBS (phosphate buffer saline) 4 times.
Subsequently, the responder cells were inoculated at a rate of 10^5 cells per well and then test substances (compounds SQAG 3, SQAG 5, SQAG 7, and SQAG 9 listed in Table 6 below) were added to a predetermined concentration. The reaction mixture was cultured at 37° C. for one hour. Thereafter, the stimulator cells were added at a rate of 10^5 cells per well. The mixture was cultured in a CO2 incubator at 37° C. for 4 days. After the incubation, the proliferation ability of the responder cells was quantified as follows. […] Then, the amount of [^3H]-thymidine uptake into the cells was determined by a scintillation counter.
FIGS. 1-4 show the amounts of [^3H]-thymidine uptake when SQAG 3, SQAG 5, SQAG 7, and SQAG 9 are added. […] In each of the FIGS. 1-4, the vertical axis indicates the intensity of radioactivity and the horizontal axis indicates the concentration of the test substance.

Assay [4] deals with LEW rat skin graft on ACI rats. Nature of the assay: Rejection test in skin graft. Format: in vivo. As to conditions: 10 mL of 1 mg/mL intraperitoneally daily for five days, graft taken on the seventh day. Here is the method: Rejection test in skin graft
ACI rats and LEW rats were prepared and subjected to inhalation anesthesia of ether. After shaving the dorsum of each ACI rat, posterior lateral skin (1×1 cm) was removed to form a skin-flayed wound, and then a hemostatic treatment was performed. On the other hand, a piece of skin (1×1 cm) was obtained from the tail of each LEW rat. The donor skin was applied to the skin-flayed wound of each ACI rat and sutured with 5-0 nylon sutures. Then, gauze was applied to the surgically operated portion and a corset with a rubber bandage was further attached thereon to protect it. Such a skin transplantation operation was applied to all ten ACI rats in the same manner. Of the ten ACT rats, five rats were selected at random and classified as a control group, and the remaining five rats were classified as a test group to which test substances are to be administered. To the control group, 10 mL of physiological saline was intraperitoneally injected daily for five days after the surgery. To the test group, 10 mL solution of SQAG 9 dissolved in physiological saline at a concentration of 1 mg/mL was intraperitoneally injected daily for five days after the surgery in the same manner as in the control group.
On the seventh day after the operation, a graft was taken to prepare a tissue specimen. […]

On to `CCCCCCCCCCCCCC(=O)OCC(CO[C@H]1O[C@H](CS(=O)(=O)O)[C@@H](O)[C@H](O)[C@H]1O)OC(=O)CCCCCCCCCCCCC` (mixture of isomers) [SQAG 1], for which the IC50 in assay [1] is 32 µg/mL; in assay [2], 1080 nM; with Colon cancer cells DLD-1, 38 µg/mL.
Take `CCCCCCCCCCCCCC(=O)OCC(O)CO[C@H]1O[C@H](CS(=O)(=O)O)[C@@H](O)[C@H](O)[C@H]1O` (mixture of isomers) [SQAG 2]: the IC50 is 40 µg/mL in assay [1], 8510 nM in assay [2] and 40 µg/mL in the assay on Colon cancer cells DLD-1.
In the case of `CCCCCCCCCCCCCCCC(=O)OCC(O)CO[C@H]1O[C@H](CS(=O)(=O)O)[C@@H](O)[C@H](O)[C@H]1O` (mixture of isomers) [SQAG 4], the IC50 in assay [1] is 40 µg/mL; in assay [2] it was 6290 nM; in the assay with Colon cancer cells DLD-1, 31 µg/mL.
On to `CCCCCCCCCCCCCCCCCC(=O)OCC(CO[C@H]1O[C@H](CS(=O)(=O)O)[C@@H](O)[C@H](O)[C@H]1O)OC(=O)CCCCCCCCCCCCCCCCC` (mixture of isomers) [SQAG 5], for which, in assay [2], the IC50 was 352 nM.
For the compound `CCCCCCCCCCCCCCCCCC(=O)OCC(O)CO[C@H]1O[C@H](CS(=O)(=O)O)[C@@H](O)[C@H](O)[C@H]1O` (mixture of isomers) [SQAG 6], the values for the IC50 (in assay [1]; in assay [2]; with Colon cancer cells DLD-1) were 37.5 µg/mL, 4100 nM and 30 µg/mL, respectively.
Consider `CCCCCCCCCCCCCCCC(=O)OCC(CO[C@@H]1O[C@H](CS(=O)(=O)O)[C@@H](O)[C@H](O)[C@H]1O)OC(=O)CCCCCCCCCCCCCCC` (mixture of isomers) [SQAG 7], for which, in assay [2], the IC50 is 377 nM.
`CCCCCCCCCCCCCCCC(=O)OCC(O)CO[C@@H]1O[C@H](CS(=O)(=O)O)[C@@H](O)[C@H](O)[C@H]1O` (mixture of isomers) [SQAG 8]: the IC50 in assay [1] was 50 µg/mL; in assay [2], 7190 nM; with Colon cancer cells DLD-1, 42 µg/mL.
As for `CCCCCCCCCCCCCCCCCC(=O)OCC(CO[C@@H]1O[C@H](CS(=O)(=O)O)[C@@H](O)[C@H](O)[C@H]1O)OC(=O)CCCCCCCCCCCCCCCCC` (mixture of isomers) [SQAG 9], in assay [3], the “immunosuppressive activity (amount of [3H]-thymidine uptake)” value is listed as “considerably higher immunosuppressive activity than other compounds”. Besides, in assay [4], the “necrosis of the epidermal layer of the graft (histological observation)” value is on record as “three out of five rats” and the “rats in which some parts of the epidermis adhered to the dermis (rejection suppressed)” value is “remaining two rats”. In addition, in assay [2], the IC50 was 352 nM.
For the compound `CCCCCCCCCCCCCCCCCC(=O)OCC(O)CO[C@@H]1O[C@H](CS(=O)(=O)O)[C@@H](O)[C@H](O)[C@H]1O` (mixture of isomers) [SQAG 10], the IC50 in assay [2] is 5130 nM.
With `CCCCCCCCCCCCCCCCCCCC(=O)OCC(O)CO[C@H]1O[C@H](CS(=O)(=O)O)[C@@H](O)[C@H](O)[C@H]1O` (mixture of isomers) [SQAG 11], the IC50 in assay [1] was 24 µg/mL; in assay [2], 1960 nM; in the assay with Colon cancer cells DLD-1 it was 28 µg/mL.
In the case of `CCCCCCCCCCCCCCCCCCCCCC(=O)OCC(O)CO[C@H]1O[C@H](CS(=O)(=O)O)[C@@H](O)[C@H](O)[C@H]1O` (mixture of isomers) [SQAG 12], the IC50 in assay [1] is 23 µg/mL; in assay [2] it was 1560 nM; in the assay on Colon cancer cells DLD-1 it was 20 µg/mL.
The like results for `CCCCCCCCCCCCCCCCCCCCCCCC(=O)OCC(O)CO[C@H]1O[C@H](CS(=O)(=O)O)[C@@H](O)[C@H](O)[C@H]1O` (mixture of isomers) [SQAG 13] were, in that order, 20 µg/mL, 1490 nM and 20 µg/mL.
`CCCCCCCCCCCCCCCCCCCCCCCCCC(=O)OCC(O)CO[C@H]1O[C@H](CS(=O)(=O)O)[C@@H](O)[C@H](O)[C@H]1O` (mixture of isomers) [SQAG 14]: the IC50 is 20 µg/mL in assay [1], 1430 nM in assay [2] and 18 µg/mL in the assay on Colon cancer cells DLD-1.
On to `CCCCCCCCCCCCCCCC(=O)OCC(CO[C@H]1O[C@H](CS(=O)(=O)O)[C@@H](O)[C@H](O)[C@H]1O)OC(=O)CCCCCCCCCCCCCCC` (some centres unmarked) [SQAG 3], for which the IC50 in assay [2] was 503 nM.
